Entries after “also recorded” stand apart in the source; their conditions may differ.
How the values were obtained:
[1] = mice; cited from earlier work
[2] = test system: LPR mouse model (pepsin-mediated laryngeal damage); assay: in vivo LPR mouse model: mechanical injury plus laryngeal pepsin instillation, H&E histology; settings: for protection against pepsin-mediated laryngeal damage (histology): 0.3 mg/ml pepsin pH7, 4 weeks
Excerpt: Three replicate animals per treatment condition were anticipated to suffice for verification of reproducibility in each experiment without excessive use of animal life. The three mice were randomly allocated to treatment groups. No data were excluded from analysis.
Six-week-old female Jackson A/J mice (Jackson Laboratory, Bar Harbor, ME) were fed D-62 powdered Wattenberg diet, 2 g/mouse/day^95 and allowed to acclimate for one week upon arrival prior to experiments. In accord with previously established methods for modeling aerodigestive tract damage attributed to GERD and LPR,^1,95-99 mechanical injury applied during the first two weeks of a four-week treatment course was used to predispose the laryngeal mucosa to chemical injury by pepsin/acid applied throughout the four weeks. […] Briefly, anesthetized mice were suspended by upper teeth on a slanted board under an operating microscope.
In a preliminary experiment to validate the LPR mouse model (i.e. laryngeal damage by pepsin at neutral and acidic pH), 20 μl saline (solvent control) or 0.3 mg/ml pepsin at pH7.0 or 4.0 were provided to mice (n=3) by laryngeal instillation at 24, 48, and 72 hours after mechanical injury during weeks 1 and 2 (FIG. 6); laryngeal instillation without wounding (3 days/week) continued during weeks 3 and 4. […] Mice were sacrificed at conclusion of the fourth week.
To test the protective effect of HIV protease inhibitors on pepsin-mediated damage in vivo, inhibitors were delivered by aerosol or gavage concurrently with wounding (days 2, 8) and solvent/pepsin instillation (days 3-5, 9-11, 16-18 and 23-25). Aerosol or gavage was provided on days 1-5, 8-12, 15-19, and 22-25, and mice sacrificed day 26. Mice were anesthetized with isoflurane (3% in 2.5LPM, 3-5 minutes prior to procedures) as opposed to Avertin due to frequency. […] Aerosol was generated as described^100. Briefly, a 10 ml suspension of drug in ethanol was placed in the baffle, such that the concentration would remain constant at the equilibrium solubility. Droplets of ethanol containing dissolved drug were generated by an ultrasonic atomizer (nominal frequency 1.7 MHz) and entrained by air at a flow rate of 0.5 LPM with a custom-built glass baffle (UMN Department of Chemistry Glass Shop). The aerosol cloud was then passed through a cylindrical drying column containing an annular ring of charcoal. The ethanol was removed and the emanating dry aerosol particles of pure drug were then directed into the exposure chamber. The mass deposited on filters was measured gravimetrically and total output rate (mg/min) was determined. The aerosol concentration (mass/volume of air) was calculated by dividing the total output rate by the air flow rate (0.5 LPM). The inhaled mass of drug (Minh) for each mouse was defined as Minh=[Aerosol]*RMV*t, where Aerosol is the aerosol concentration of drug, RMV is the respiratory minute volume of the mice (0.025 L/min), and t is the aerosol exposure time. […] Actual mass deposited was not determined but anticipated to be 10% of inhaled mass (the deposition fraction of […] aerosol particles in mice).
Tissues were collected, fixed in paraformaldehyde, embedded in paraffin and 4 um sections stained with hematoxylin and eosin (H&E) via automated stainer. Slides were reviewed by a board-certified pathologist (JM) blinded to treatment groups.

[3] = prodrug relative to amprenavir; cited from earlier work
[4] = in vivo; cited from earlier work
[5] = solubility when preparing co-crystallization solutions; type: physicochemical; settings: saturated solution in DMSO for co-crystallization; CryoSol SM2 chosen instead
Protocol: Supernatant of saturated saquinivar solution in SM2 was combined with pepsin at 5% f.c. (v/v). Crystallization conditions were optimized by screening 200 mg/ml pepsin in the Salt RX screen (Hampton Research, Viejo, CA). […] Diffraction quality crystals (triangular bi-pyramids, approximately 200×100×100 μm) formed after 2-7 days from hanging drops of 2 ul pepsin (180-210 mg/ml) and 1 ul microseed solution serially diluted 10-100× above 3-4M ammonium chloride and 0.1M sodium acetate trihydrate pH4.6. Crystals were cryoprotected by 30% glucose, 5M ammonium chloride and 0.1 M sodium acetate trihydrate pH4.6 and plunged in liquid nitrogen. Co-crystallization with saquinavir was performed in 0.1M acetic acid rather than sodium acetate trihydrate as this permitted large crystal formation without a microseed; crystals were cryoprotected by 30% w/v glucose, 5M ammonium chloride and 0.1 M sodium acetate trihydrate pH 4.6 and plunged in liquid nitrogen.

[6] = target: T1, porcine pepsin (Sus scrofa, UniProt P00791); assay: peptic activity assay, fluorescence polarization with casein-Alexa647; type: biochemical
T1 construct: purchased Worthington Biochemical Corporation
T1 sequence (P00791 60-385): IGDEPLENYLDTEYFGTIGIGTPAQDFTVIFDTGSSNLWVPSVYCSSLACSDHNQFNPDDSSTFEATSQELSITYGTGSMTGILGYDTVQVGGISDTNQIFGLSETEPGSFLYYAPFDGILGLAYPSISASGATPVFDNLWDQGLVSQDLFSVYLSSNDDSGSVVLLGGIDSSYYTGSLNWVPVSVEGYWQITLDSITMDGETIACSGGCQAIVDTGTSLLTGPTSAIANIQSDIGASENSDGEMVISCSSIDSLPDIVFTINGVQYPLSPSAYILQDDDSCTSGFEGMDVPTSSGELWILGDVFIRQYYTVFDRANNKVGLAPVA
Protocol: To examine whether HIV protease inhibitors bound and inhibited pepsin, we developed assays based on fluorescence polarization which measures size-dependent molecular rotation thereby permitting detection of degradation, association and dissociation events^80. A competitive binding assay was designed employing pepstatin, an inhibitor of sub-nanomolar affinity^81. Pepstatin-Alexa647 was synthesized by dissolving 1 mg pepstatin A (Sigma-Aldrich) in a 50:50 mixture of dimethylformamide (DMF) and dimethylsulfoxide (DMS) followed by the addition of N,N,N′,N′-Tetramethyl-O—(N-succinimidyl)uronium tetrafluoroborate (0.6 mg) and trimethylamine (10 μL) DMF. The mixture was stirred for 1 hour, after which 1 mg Alexa Fluor 647 Cadaverine, Disodium Salt (ThermoFisher Scientific) was added. After 2 hours, the solvents were evaporated under high vacuum (35° C.) and residue partially dissolved in 10% methanol and transferred onto a C18 cartridge (Waters Corporation, Milford, MA). Increasing percentages of methanol were used for the elution. […] An enzymatic inhibition assay was designed using casein substrate.^82 Bovine alpha casein (Sigma-Aldrich, St. Louis, MO) was labeled with Alexa Fluor 647 Carboxylic Acid, Succinimidyl Ester (ThermoFisher Scientific, Waltham, MA) as described.^82 Briefly, the two were combined at 2.5 ug/mg label to protein ratio in 0.1M sodium bicarbonate for 15 minutes and labeled casein was separated from unbound label in a Sephadex G-25 (Sigma-Aldrich) column comprised of 90×5 mm packed beads in a glass Pasteur pipette, eluted with dPBS pH7.4 (ThermoFisher Scientific). The fast-moving band (casein-bound fluorophore) was collected in ˜0.4 ml volume. Concentration of resultant probe (casein-Alexa647 in PBS-azide) was estimated via spectrophotometry using Beer's law (Implen Nanophotometer, Implen, Inc. Westlake Village, CA).
(§1) Assays were optimized using ranges of 0.3-1000 μM unlabeled pepstatin, 100-500 nM pepstatin-Alexa647 or casein-Alexa647 probe, 0.003-3 U/μl porcine pepsin (Worthington Biochemical Corporation, Lakewood, NJ), and 5-37.5% DMSO (HIV protease inhibitor diluent) in 0.1 M HCl, pH 1 with 0.01% v/v Tween-20 in 20 μl volumes in 384-well black optical plates (Nunc, Roskilde, DK) and read on a BioTek Cytation 5 (BioTek Instruments, Winooski, VT) with far red FP filter cube (excitation/emission 620/680 nm). Unlabeled pepstatin dose-response curves were used to ensure that the assays were responsive to pepsin inhibition. […] Assays were performed twice with triplicate reactions read for five minutes and mean mP plotted against probe concentration (binding assay) or read at <2 minutes intervals over 30 minutes with mean mP of plotted over time (activity assay). Half maximal inhibitory concentration (IC50) of inhibitors were calculated from kinetic traces analyzed using an online tool (https://icekat.herokuapp.com/icekat)^83. mP was normalized to blank (absent inhibitor) to derive percent bound or activity.

[7] = target: T2, porcine pepsin A (Sus scrofa, UniProt P00791); assay: competitive binding assay, fluorescence polarization with pepstatin-Alexa647; settings: 100 nM probe, 0.03 U/ul porcine pepsin A, 37.5% DMSO, 0.1 M HCl pH 1
T2 construct: purchased Worthington Biochemical Corporation
T2 sequence (P00791 60-385): as above
Protocol: To examine whether HIV protease inhibitors bound and inhibited pepsin, we developed assays based on fluorescence polarization which measures size-dependent molecular rotation thereby permitting detection of degradation, association and dissociation events^80. A competitive binding assay was designed employing pepstatin, an inhibitor of sub-nanomolar affinity^81. Pepstatin-Alexa647 was synthesized by dissolving 1 mg pepstatin A (Sigma-Aldrich) in a 50:50 mixture of dimethylformamide (DMF) and dimethylsulfoxide (DMS) followed by the addition of N,N,N′,N′-Tetramethyl-O—(N-succinimidyl)uronium tetrafluoroborate (0.6 mg) and trimethylamine (10 μL) DMF. The mixture was stirred for 1 hour, after which 1 mg Alexa Fluor 647 Cadaverine, Disodium Salt (ThermoFisher Scientific) was added. After 2 hours, the solvents were evaporated under high vacuum (35° C.) and residue partially dissolved in 10% methanol and transferred onto a C18 cartridge (Waters Corporation, Milford, MA). Increasing percentages of methanol were used for the elution. Pepstatin-Alexa647 eluted at 45% methanol. An enzymatic inhibition assay was designed using casein substrate.^82 Bovine alpha casein (Sigma-Aldrich, St. Louis, MO) was labeled with Alexa Fluor 647 Carboxylic Acid, Succinimidyl Ester (ThermoFisher Scientific, Waltham, MA) as described.^82 Briefly, the two were combined at 2.5 ug/mg label to protein ratio in 0.1M sodium bicarbonate for 15 minutes and labeled casein was separated from unbound label in a Sephadex G-25 (Sigma-Aldrich) column comprised of 90×5 mm packed beads in a glass Pasteur pipette, eluted with dPBS pH7.4 (ThermoFisher Scientific). The fast-moving band (casein-bound fluorophore) was collected in ˜0.4 ml volume. […]
as §1, with “nm).” for “nm). Unlabeled pepstatin dose-response curves were used to ensure that the assays were responsive to pepsin inhibition.”

For `CC(C)CN(C[C@@H](OP(=O)(O)O)[C@H](Cc1ccccc1)NC(=O)O[C@H]1CCOC1)S(=O)(=O)c1ccc(N)cc1` [fosamprenavir, [(3S)-oxolan-3-yl] N-[(2S,3R)-4-[(4-aminophenyl)sulfonyl-(2-methylpropyl)amino]-1-phenyl-3-phosphonooxybutan-2-yl]carbamate], the pharmacokinetics [1] is given as “excellent pharmacokinetics”, the “laryngeal histology, drug with saline (solvent), no pepsin” value (from here on “laryngeal histology, drug … no pepsin”) ([2]; aerosol) is given as “normal histology” and the “protection against pepsin-mediated laryngeal damage (histology)” value (“protection … (histology)” below) ([2]; aerosol, inhaled mass 0.93 mg/kg/day fosamprenavir, 12 mg/kg/day darunavir) is given as “prevented pepsin-mediated laryngeal injury; also recorded: protected against pepsin-mediated laryngeal damage”. For the same compound, the “laryngeal histology, drug … no pepsin” value ([2]; gavage) was “normal histology”, the “protection … (histology)” value ([2]; gavage, 20 mg/kg/day fosamprenavir (Lexiva), 8.6 mg/kg/day darunavir (Prezista)) was “prevented pepsin-mediated laryngeal damage” and the “protection … (histology)” value ([2]; gavage, 20 mg/kg/day fosamprenavir (Lexiva), 8.6 mg/kg/day darunavir (Prezista), listed as Fosamprenavir) was “prevented pepsin-mediated laryngeal damage; also recorded: protected against pepsin-mediated laryngeal damage”. The “protection … (histology)” value ([2]; gavage, 20 mg/kg/day fosamprenavir (Lexiva), 8.6 mg/kg/day darunavir (Prezista), listed as Lexiva) was “prevents pepsin-mediated airway epithelial damage”, the “laryngeal histology, drug … no pepsin” value ([2]; gavage, listed as Lexiva) was “Normal-appearing respiratory epithelium” and the bioavailability [3] was “improved bioavailability”. For the same compound, the tolerability [4] was “favorable tolerability”.

With `CC(C)(C)NC(=O)[C@@H]1C[C@@H]2CCCC[C@@H]2CN1C[C@@H](O)[C@H](Cc1ccccc1)NC(=O)[C@H](CC(N)=O)NC(=O)c1ccc2ccccc2n1` [saquinavir, (2S)-N-[(2S,3R)-4-[(3S,4aS,8aS)-3-(tert-butylcarbamoyl)-3,4,4a,5,6,7,8,8a-octahydro-1H-isoquinolin-2-yl]-3-hydroxy-1-phenylbutan-2-yl]-2-(quinoline-2-carbonylamino)butanediamide] the solubility [5] was “poor solubility”, the “inhibited pepsin (peptic activity)” value ([6]; 200 nM probe, 0.01 U/μL pepsin, 5% DMSO, 0.1 M HCl pH 1) was “low micromolar” and the IC50 for pepsin ([6]; in vitro binding and inhibition assays, IC50 from kinetic traces) was “low micromolar range”. The “bound pepsin (competitive binding)” value [7] was “low micromolar” and the side effects [4] was “QT prolongation, heart block, high blood lipids and liver problems”.
